# Assay results published in patent US9255062B2, “Fatty acid derivatives for oral administration endowed with high palatability” (priority 2008, dated 2016).
# Tests used:
# Caco-2 cells = assay: Ussing chamber, short circuit current in Caco-2 monolayer, baseline conditions; format: cell-based, human; settings: Caco-2 in Ussing chamber; for decrease in short circuit current (ΔIsc), maximum effect: final concentration 10 mM; for decrease in short circuit current (ΔIsc), maximum effect / time of maximum decrease in Isc after addition: luminal (mucosal) side; for effect on tissue conductance: luminal side, measure of tissue integrity
# Experimental: The experiments were carried out using a human intestinal cell line called Caco-2, obtained from the American Type Culture Collection (ATCC, Rockville, USA). These cells, 15 days after confluence, form a monolayer of enterocytes with morphological and functional features identical to those of ileal enterocytes at the apex of the villus (Berni Canani R, et al. Gastroenterology 2003; 124:368-76). Cells were grown in a culture medium consisting in Dulbecco's Modified Eagle's Medium (DMEM) containing glucose (4.5 g/L), 10% Fetal Calf Serum (FCS), 1% non-essential amino acids, 1% L-glutamine, 1% sodium pyruvate, streptomycin ([…]), penicillin ([…]), and were incubated at 37° C. in an atmosphere of 5% CO2 and […]. The culture medium was replaced every day.
# For all the experiments were used cells at the 30th-40th pass, 2×10^6 cells per filter, grown on polycarbonate supports (pore size 0.4 μm, diameter 24.5 mm) for 15 days post-confluence. Each support containing the cells was mounted in an Ussing chamber (World Precision Instruments, Sarasota, Fla.) as a cellular monolayer between the luminal and the serosal compartments (Berni Canani R, et al. J. Pediatr. Gastroenterol. Nutr. 28: 315-320, 1999). The Ussing chamber system, allows through the measurement of defined electrical parameters, the study of transepithelial transport of water and electrolytes. These parameters consist in: 1) transepithelial potential difference (PD) and short circuit current (Isc), an expression of the transepithelial passage of ions; 2) resistance (RT) and, ionic conductance (G), a measure of tissue integrity. An absorptive-type stimulus on transepithelial transport induces a decrease in Isc, whereas a secretory-type stimulus induces an increase in Isc. The Isc is expressed in microamperes per square centimeter (μA/cm^2), conductance in millisiemens per square centimeter (mS/cm^2) and the transepithelial potential difference in millivolts (mV). Measurement of these electrical parameters is made possible by the presence of silver electrodes, placed proximally to both sides (serosal and luminal) of the cellular monolayer and connected with an automatic voltage system equipped with software for data acquisition and processing (DVC 1000, World Precision Instruments, Sarasota, Fla., USA). Each compartment contained 10 ml of Ringer's solution with the following composition (in mmol/L): NaCl, 114; KCl, 5; NaH2PO4, 0.3; Na2HPO4, 1.65; CaCl2, 1.25; MgCl2, 1.1; NaHCO3, 25; glucose, 10. The incubation liquid was circulated through the chamber by means of the flow of a gaseous mixture composed of 95% O2 and 5% CO2 and was maintained at a temperature of 37° C. by means of a thermostat (Berni Canani R. et al. J. Pediatr. Gastroenterol. Nutr. 28: 315-320, 1999). The study of changes in electrical parameters reflecting changes in transepithelial transport of water and electrolytes was carried out in baseline conditions and after administration of the compounds on the luminal side of the monolayer of Caco-2 cells.
# Swiss mice = settings: oral administration
# in vivo = settings: both, Swiss, mouse, po
Compound,"decrease in short circuit current (ΔIsc), maximum effect (Caco-2 cells) [μA/cm^2]",time of maximum decrease in Isc after addition (Caco-2 cells),effect on tissue conductance (Caco-2 cells),LD50 expressed as equivalent of butyric acid (Swiss mice) [g],LD50 (in vivo) [mg/kg]
"CCCC(=O)NC(Cc1ccccc1)C(N)=O (stereo not shown) [Compound 1, N-(1-carbamoyl-2-phenyl-ethyl)butyramide]",−0.9±0.3,approximately 40 minutes,without interfering with the stability of tissue conductance,8.8,23800
"CCCC(=O)O [butyric acid, reference compound]",,,,,8800
"CCCC(=O)NC(=O)C(Cc1ccccc1)NC(=O)CCC (stereo not shown) [Compound 2, N-(1-butyroyl-carbamoyl-2-phenyl-ethyl)butyramide]",−0.4±0.1,40 to 45 min,without interfering with the stability of tissue conductance,8.8,16300
"CCCC(=O)[O-].[Na+] [sodium butyrate, reference compound]",−0.8±0.2,approximately 35 minutes,did not alter tissue conductance,,
"CCCC1=NC(=O)C(Cc2ccccc2)N1 (stereo not shown) [Compound 3, 5-benzyl-2-propyl-1H-imidazol-4(5H)-one]",−1.1±0.1,50 min,absence of any significant changes in tissue conductance,8.8,21600
